Article PMC10866072, “Design, synthesis, molecular modelling and biological evaluation of novel 6-amino-5-cyano-2-thiopyrimidine derivatives as potent anticancer agents against leukemia and apoptotic inducers” (Journal of Enzyme Inhibition and Medicinal Chemistry, 2024)

Assays:
SR = assay type: cell-based; settings: Homo sapiens, one dose 10^-5 M, 48 h
KM12 = assay type: cell-based; settings: Homo sapiens, one dose 10^-5 M, 48 h
SN12C = assay type: cell-based, human; settings: Homo sapiens, one dose 10^-5 M, 48 h
OVCAR-4 = assay type: cell-based; settings: Homo sapiens, one dose 10^-5 M, 48 h
OVCAR-5 = assay type: cell-based; settings: Homo sapiens, one dose 10^-5 M, 48 h
SK-MEL-2 = assay type: cell-based; settings: Homo sapiens, one dose 10^-5 M, 48 h
MDA-MB-231/ATCC = assay type: cell-based; settings: Homo sapiens, one dose 10^-5 M, 48 h
RXF 393 = assay type: cell-based; settings: Homo sapiens, RXF 393, 48 h, one dose 10^-5 M, 48 h, read-out: % growth
HOP-62 = assay type: cell-based; settings: Homo sapiens, one dose 10^-5 M, 48 h
A549/ATCC = assay type: cell-based; settings: Homo sapiens, one dose 10^-5 M, 48 h
M14 = assay type: cell-based; settings: Homo sapiens, one dose 10^-5 M, 48 h
TK-10 = assay type: cell-based; settings: Homo sapiens, one dose 10^-5 M, 48 h
NCI-H522 = assay type: cell-based; settings: Homo sapiens, one dose 10^-5 M, 48 h
HCC-2998 = assay type: cell-based; settings: Homo sapiens, one dose 10^-5 M, 48 h
SNB-75 = assay type: cell-based; settings: Homo sapiens, one dose 10^-5 M, 48 h
UACC-257 = assay type: cell-based; settings: Homo sapiens, one dose 10^-5 M, 48 h
SW-620 = assay type: cell-based; settings: Homo sapiens, one dose 10^-5 M, 48 h
HS 578T = assay type: cell-based; settings: Homo sapiens; one dose 10^-5 M, 48 h; HS 578T; read-out: % growth
NCI-H23 = assay type: cell-based; settings: Homo sapiens, one dose 10^-5 M, 48 h, read-out: % growth
K-562 = assay type: cell-based; settings: Homo sapiens, K562, one dose 10^-5 M, 48 h
MALME-3M = assay type: cell-based; settings: Homo sapiens, one dose 10^-5 M, 48 h
T-47D = assay type: cell-based; settings: Homo sapiens, T47D, one dose 10^-5 M, 48 h, read-out: % growth
[1] = tested on: full NCI 60 cell lines panel
U251 = assay type: cell-based; settings: Homo sapiens, U-251, one dose 10^-5 M, 48 h
SF-539 = assay type: cell-based; settings: Homo sapiens, one dose 10^-5 M, 48 h
MCF7 = assay type: cell-based; settings: Homo sapiens, one dose 10^-5 M, 48 h, read-out: % growth
HCT-15 = assay type: cell-based; settings: Homo sapiens, one dose 10^-5 M, 48 h, read-out: % growth
SK-MEL-5 = assay type: cell-based; settings: Homo sapiens, one dose 10^-5 M, 48 h, read-out: % growth
NCI-H226 = assay type: cell-based; settings: Homo sapiens, one dose 10^-5 M, 48 h
A498 = assay type: cell-based; settings: Homo sapiens, one dose 10^-5 M, 48 h
SF-268 = assay type: cell-based; settings: Homo sapiens, one dose 10^-5 M, 48 h, read-out: % growth
SF-295 = assay type: cell-based; settings: Homo sapiens, one dose 10^-5 M, 48 h
SK-OV-3 = assay type: cell-based; settings: Homo sapiens, one dose 10^-5 M, 48 h
EKVX = assay type: cell-based; settings: Homo sapiens, one dose 10^-5 M, 48 h
MDA-MB-468 = assay type: cell-based; settings: Homo sapiens, one dose 10^-5 M, 48 h
HL-60(TB) = assay type: cell-based; settings: Homo sapiens, one dose 10^-5 M, 48 h
HT29 = assay type: cell-based; settings: Homo sapiens, HT-29, one dose 10^-5 M, 48 h
MDA-MB-435 = assay type: cell-based; settings: Homo sapiens, one dose 10^-5 M, 48 h, read-out: % growth
786-0 = assay type: cell-based; settings: Homo sapiens, one dose 10^-5 M, 48 h
OVCAR-3 = assay type: cell-based; settings: Homo sapiens, one dose 10^-5 M, 48 h
UO-31 = assay type: cell-based; settings: Homo sapiens, UO-31, 48 h, one dose 10^-5 M, 48 h
LOX IMVI = assay type: cell-based; settings: Homo sapiens, one dose 10^-5 M, 48 h, read-out: % growth
IGROV1 = assay type: cell-based; settings: Homo sapiens, IGROV-1, one dose 10^-5 M, 48 h, read-out: % growth
PC-3 = assay type: cell-based; settings: Homo sapiens, one dose 10^-5 M, 48 h
OVCAR-8 = assay type: cell-based; settings: Homo sapiens, one dose 10^-5 M, 48 h
ACHN = assay type: cell-based; settings: Homo sapiens, one dose 10^-5 M, 48 h
HOP-92 = assay type: cell-based; settings: Homo sapiens, one dose 10^-5 M, 48 h
MOLT-4 = assay type: cell-based; settings: Homo sapiens, one dose 10^-5 M, 48 h, read-out: % growth
RPMI-8226 = assay type: cell-based; settings: Homo sapiens, one dose 10^-5 M, 48 h
CAKI-1 = assay type: cell-based; settings: Homo sapiens, CAKI-1, 48 h, one dose 10^-5 M, 48 h
DU-145 = assay type: cell-based; settings: Homo sapiens, one dose 10^-5 M, 48 h
CCRF-CEM = assay type: cell-based; settings: Homo sapiens, one dose 10^-5 M, 48 h
SK-MEL-28 = assay type: cell-based; settings: Homo sapiens, one dose 10^-5 M, 48 h
HCT-116 = assay type: cell-based; settings: Homo sapiens, one dose 10^-5 M, 48 h, read-out: % growth
NCI-H460 = assay type: cell-based; settings: Homo sapiens, one dose 10^-5 M, 48 h, read-out: % growth
SNB-19 = assay type: cell-based; settings: Homo sapiens, one dose 10^-5 M, 48 h, read-out: % growth
UACC-62 = assay type: cell-based; settings: Homo sapiens, one dose 10^-5 M, 48 h

Nc1nc(S)nc(-c2ccc(Cl)cc2)c1-c1ncn[nH]1 [Compound 5b, 4-Amino-6–(4-chlorophenyl)-5-(1H-1,2,4-triazol-5-yl)pyrimidine-2-thiol]
percent cell growth at 10 µM (SR): 96.6% | % growth at 10 µM (KM12): 102% | % growth at 10 µM (SN12C): 93.5% | % growth at 10 µM (OVCAR-4): 112% | percent cell growth at 10 µM (OVCAR-5): 96.7% | % growth at 10 µM (SK-MEL-2): 108% | % growth at 10 µM (MDA-MB-231/ATCC): 93.7% | activity at 10 µM (RXF 393): 115% | % growth at 10 µM (HOP-62): 88.6% | % growth at 10 µM (A549/ATCC): 110% | % growth at 10 µM (M14): 98.9% | % cell growth at 10 µM (TK-10): 109% | % growth at 10 µM (NCI-H522): 85.5% | % growth at 10 µM (HCC-2998): 94.8% | % growth at 10 µM (SNB-75): 78.7% | percent cell growth at 10 µM (UACC-257): 112% | % growth at 10 µM (SW-620): 103% | activity at 10 µM (HS 578T): 111% | activity at 10 µM (NCI-H23): 97% | % growth at 10 µM (K-562): 103% | % growth at 10 µM (MALME-3M): 92.6% | activity at 10 µM (T-47D): 86.4% | activity at 10 µM ([1]; Homo sapiens, 60 cell, 48 h, read-out: Mean % growth): 98.4% | activity on all 60 cancer cell lines tested (in words) ([1]; one dose): weak activity | % growth at 10 µM (U251): 98.8% | % growth at 10 µM (SF-539): 92.5% | activity at 10 µM (MCF7): 93.8% | activity at 10 µM (HCT-15): 103% | activity at 10 µM (SK-MEL-5): 98.7% | % growth at 10 µM (NCI-H226): 92.7% | % growth at 10 µM (A498): 109% | activity at 10 µM (SF-268): 96.7% | % cell growth at 10 µM (SF-295): 93.7% | % growth at 10 µM (SK-OV-3): 85.5% | % cell growth at 10 µM (EKVX): 98% | percent cell growth at 10 µM (MDA-MB-468): 101% | % growth at 10 µM (HL-60(TB)): 108% | % growth at 10 µM (HT29): 95.4% | activity at 10 µM (MDA-MB-435): 103% | % growth at 10 µM (786-0): 108% | % growth at 10 µM (OVCAR-3): 108% | % cell growth at 10 µM (UO-31): 74.6% | activity at 10 µM (LOX IMVI): 99.2% | activity at 10 µM (IGROV1): 98.7% | percent cell growth at 10 µM (PC-3): 85.5% | % growth of cells at 10 µM (OVCAR-8): 94.8% | % growth at 10 µM (ACHN): 96.9% | % growth at 10 µM (HOP-92): 91.7% | activity at 10 µM (MOLT-4): 108% | % growth at 10 µM (RPMI-8226): 98.6% | % growth at 10 µM (CAKI-1): 82.8% | % growth at 10 µM (DU-145): 109% | % cell growth at 10 µM (CCRF-CEM): 97.9% | % cell growth at 10 µM (SK-MEL-28): 111% | activity at 10 µM (HCT-116): 92.1% | activity at 10 µM (NCI-H460): 110% | activity at 10 µM (SNB-19): 91% | % growth at 10 µM (UACC-62): 95.9%
